From patent US7183112B2, “Uses for anti-malarial therapeutic agents” (APT Pharmaceuticals, LLC, priority 1999, dated 2007)
Several values for one entry are separate records, joined by “and”; a condition that tells them apart may be missing. Identical values can stand only once. Entries after “also recorded” stand apart in the source; their conditions may differ.

Experiments:
Ascaris-sensitized sheep = experiment: Antigen-induced changes in specific lung resistance (early and late responses), Examples 1-2; type: in vivo; details: for Specific resistance, +5 HRS % / Specific resistance, +5 HRS Srl: 5 h post antigen; for Specific resistance, +7 HRS % / Specific resistance, +7 HRS Srl: 7 h post antigen; for Specific resistance, +7.5 HRS % / Specific resistance, +7.5 HRS Srl: 7.5 h post antigen; for Specific resistance, +8 HRS % / Specific resistance, +8 HRS Srl: 8 h post antigen; for Specific resistance, P-ASC % / Specific resistance, P-ASC Srl: immediately post Ascaris antigen; for Specific resistance, P-pl/dg % (immediate) / Specific resistance, P-pl/dg Srl (immediate): immediately post drug; for Specific resistance, P-pl/dg % (just before Ag) / Specific resistance, P-pl/dg Srl (just before Ag): post drug, just before antigen
Method: All procedures were approved by the Mount Sinai Medical Center Animal Research Committee, which is responsible for assuring the humane care and use of experimental animals.
Measurement of Airway Mechanics: The unsedated sheep were restrained in a cart in the prone position with their heads immobilized. After topical anesthesia of the nasal passages with 2% lidocaine solution, a balloon catheter was advanced through one nostril into the lower esophagus. The animals were […] with a cuffed endotracheal tube through the other nostril using a flexible fiberoptic bronchoscope as a guide. […] Pleural pressure was estimated with the esophageal balloon catheter (filled with one ml of air) which was positioned 5–10 cm from the gastroesophageal junction. […] Once the balloon was placed, it was secured so that it remained in position for the duration of the experiment. Lateral pressure in the trachea was-measured with a sidehole catheter (inner dimension, 2.5 mm) advanced through and positioned distal to the tip of the endotracheal tube. Transpulmonary pressure, the difference between tracheal and pleural pressure, was measured with a differential pressure transducer catheter system. For the measurement of pulmonary resistance (RL), the proximal end of the endotracheal tube was connected to a pneumotachograph (Fleisch No. 1; Dyna Sciences, Inc., Blue Bell, Pa.). […] The mean of at least five breaths, free of swallowing artifact, was used to obtain RL in cm H2O/L/s. Immediately after the measurement of RL, thoracic gas volume (Vtg) was measured in a constant-volume body plethysmograph to obtain specific lung resistance (SRL=RL×Vtg) in L×cm H2O/L/s.
Aerosol Delivery Systems: Aerosols of Ascaris suum extract (diluted 20:1 with phosphate buffered saline; 82,000 PNU/ml) were generated using a disposable medical nebulizer (Raindrop^R, Puritan Bennett), which produces an aerosol with a mass median aerodynamic diameter of 3.2 μm (geometric standard deviation, 1.9) as determined by a 7 stage Andersen cascade impactor. The output from the nebulizer was directed into a plastic T-piece, one end of which was connected to the inspiratory port of a Harvard respirator. […] The aerosol was delivered at a tidal volume of 500 ml and a rate of 20 breaths per minute for 20 minutes. Each sheep was challenged with an equivalent dose of antigen (400 breaths) in the control and drug trials. Carbachol aerosols were also generated with this same nebulizer system.
At 3 to 4 days before treatment was begun, baseline airway responsiveness, to aerosol carbachol (i.e., PC400) was determined and a baseline bronchial biopsy performed. […] The animals were treated two times a day for 3 days and then, on the fourth day, at 0.5 hours before antigen challenge and again at 4 hours after challenge. […] SRL was remeasured 0.5 h after treatment (just before challenge) and the animals were then challenged with antigen. SRL was then remeasured immediately after.
On the fourth day, they received an additional treatment one-half hour prior to antigen challenge.

IL-4 = details: Seggev J Immunol 150:62A; cited from earlier work
[1] = Example 2, aerosol 40 mg b.i.d. (2 mg/kg/day), 4 h post antigen, individual sheep
[2] = Example 2, aerosol 40 mg b.i.d. (2 mg/kg/day), Mean of 2 sheep
[3] = Example 2, aerosol 40 mg b.i.d. (2 mg/kg/day), individual sheep
[4] = Example 2, aerosol 40 mg b.i.d. (2 mg/kg/day), 6 h post antigen, Mean of 2 sheep
[5] = Example 2, aerosol 40 mg b.i.d. (2 mg/kg/day), 6 h post antigen, individual sheep
[6] = Example 2, aerosol 40 mg b.i.d. (2 mg/kg/day), +6 HRS, individual sheep
[7] = inhaled (nebulized), summary of animal studies

CCN(CCO)CCCC(C)Nc1ccnc2cc(Cl)ccc12 (stereo not drawn) [HCQ, hydroxychloroquine]
Specific resistance, +4 HRS % (Ascaris-sensitized sheep; [1]): 10% and 28%
Specific resistance, +4 HRS Srl (Ascaris-sensitized sheep; [1]): 1.12 L×cm H2O/L/s and 1.39 L×cm H2O/L/s
Specific resistance, +5 HRS % (Ascaris-sensitized sheep; [2]): 17%
Specific resistance, +5 HRS Srl (Ascaris-sensitized sheep; [2]): 1.23 L×cm H2O/L/s
Specific resistance, +5 HRS % (Ascaris-sensitized sheep; [3]): 36% and −2%
Specific resistance, +5 HRS Srl (Ascaris-sensitized sheep; [3]): 1.39 L×cm H2O/L/s and 1.07 L×cm H2O/L/s
Specific resistance, +6 HRS % (Ascaris-sensitized sheep; [4]): 18%
Specific resistance, +6 HRS Srl (Ascaris-sensitized sheep; [4]): 1.24 L×cm H2O/L/s
Specific resistance, +6 HRS % (Ascaris-sensitized sheep; [5]): 20% and 16%
Specific resistance, +6 HRS Srl (Ascaris-sensitized sheep; [5]): 1.22 L×cm H2O/L/s and 1.26 L×cm H2O/L/s
Specific resistance, +7 HRS % (Ascaris-sensitized sheep; [2]): 16%
Specific resistance, +7 HRS Srl (Ascaris-sensitized sheep; [2]): 1.23 L×cm H2O/L/s
Specific resistance, +7 HRS % (Ascaris-sensitized sheep; [3]): 20% and 13%
Specific resistance, +7 HRS Srl (Ascaris-sensitized sheep; [3]): 1.22 L×cm H2O/L/s and 1.23 L×cm H2O/L/s
Specific resistance, +7.5 HRS % (Ascaris-sensitized sheep; [2]): 35%
Specific resistance, +7.5 HRS Srl (Ascaris-sensitized sheep; [2]): 1.42 L×cm H2O/L/s
Specific resistance, +7.5 HRS % (Ascaris-sensitized sheep; [3]): 50% and 19%
Specific resistance, +7.5 HRS Srl (Ascaris-sensitized sheep; [3]): 1.53 L×cm H2O/L/s and 1.30 L×cm H2O/L/s
Specific resistance, +8 HRS % (Ascaris-sensitized sheep; [2]): 20%
Specific resistance, +8 HRS Srl (Ascaris-sensitized sheep; [2]): 1.27 L×cm H2O/L/s
Specific resistance, +8 HRS % (Ascaris-sensitized sheep; [3]): 22% and 18%
Specific resistance, +8 HRS Srl (Ascaris-sensitized sheep; [3]): 1.24 L×cm H2O/L/s and 1.29 L×cm H2O/L/s
Specific resistance, +6 HRS Srl (Ascaris-sensitized sheep; Example 2, aerosol 40 mg b.i.d. (2 mg/kg/day), +6 HRS, Mean of 2 sheep): 1.21 L×cm H2O/L/s
Specific resistance, +6 HRS % (Ascaris-sensitized sheep; [6]): 8% and 21%
Specific resistance, +6 HRS Srl (Ascaris-sensitized sheep; [6]): 1.10 L×cm H2O/L/s and 1.32 L×cm H2O/L/s
Specific resistance, P-ASC % (Ascaris-sensitized sheep; [2]): 238%
Specific resistance, P-ASC Srl (Ascaris-sensitized sheep; [2]): 3.58 L×cm H2O/L/s
Specific resistance, P-ASC % (Ascaris-sensitized sheep; [3]): 196% and 280%
Specific resistance, P-ASC Srl (Ascaris-sensitized sheep; [3]): 3.02 L×cm H2O/L/s and 4.14 L×cm H2O/L/s
Specific resistance, P-pl/dg % (immediate) (Ascaris-sensitized sheep; [2]): 3%
Specific resistance, P-pl/dg Srl (immediate) (Ascaris-sensitized sheep; [2]): 1.08 L×cm H2O/L/s
Specific resistance, P-pl/dg % (immediate) (Ascaris-sensitized sheep; [3]): 13% and −7%
Specific resistance, P-pl/dg Srl (immediate) (Ascaris-sensitized sheep; [3]): 1.15 L×cm H2O/L/s and 1.01 L×cm H2O/L/s
Specific resistance, P-pl/dg % (just before Ag) (Ascaris-sensitized sheep; [2]): 1%
Specific resistance, P-pl/dg Srl (just before Ag) (Ascaris-sensitized sheep; [2]): 1.07 L×cm H2O/L/s
Specific resistance, P-pl/dg % (just before Ag) (Ascaris-sensitized sheep; [3]): −6% and 7%%
Specific resistance, P-pl/dg Srl (just before Ag) (Ascaris-sensitized sheep; [3]): 0.96 L×cm H2O/L/s and 1.17 L×cm H2O/L/s
Specific resistance, +6 HRS % (Ascaris-sensitized sheep; Example 2, aerosol 40 mg b.i.d. (2 mg/kg/day), second +6 HRS column (text: at 6.5 hours), Mean of 2 sheep): 14%
irritant effects / tolerability of aerosolized HCQ (airway resistance after inhalation) (Ascaris-sensitized sheep; aerosol, sheep, specific resistance pre- and immediately following application): well tolerated; also recorded: does not cause any major irritant effects
effect on immediate allergic-mediated bronchostrictive responses (Ascaris-sensitized sheep; [7]): partially blocks
effect on late-phase responses (four to 12 hours post-antigen challenge) (Ascaris-sensitized sheep; [7]): virtually eliminates
effect on the actions of IL-4 (IL-4): blocks
